Results: BindingDB's records for doi:10.7270/Q2TX3CSC (Vanderbilt Screening Center for GPCRs, Ion Channels and …, 2009)

Target: T1, Solute carrier family 12 member 5 (Homo sapiens, UniProt Q9H2X9)
T1 sequence (Q9H2X9 whole entry): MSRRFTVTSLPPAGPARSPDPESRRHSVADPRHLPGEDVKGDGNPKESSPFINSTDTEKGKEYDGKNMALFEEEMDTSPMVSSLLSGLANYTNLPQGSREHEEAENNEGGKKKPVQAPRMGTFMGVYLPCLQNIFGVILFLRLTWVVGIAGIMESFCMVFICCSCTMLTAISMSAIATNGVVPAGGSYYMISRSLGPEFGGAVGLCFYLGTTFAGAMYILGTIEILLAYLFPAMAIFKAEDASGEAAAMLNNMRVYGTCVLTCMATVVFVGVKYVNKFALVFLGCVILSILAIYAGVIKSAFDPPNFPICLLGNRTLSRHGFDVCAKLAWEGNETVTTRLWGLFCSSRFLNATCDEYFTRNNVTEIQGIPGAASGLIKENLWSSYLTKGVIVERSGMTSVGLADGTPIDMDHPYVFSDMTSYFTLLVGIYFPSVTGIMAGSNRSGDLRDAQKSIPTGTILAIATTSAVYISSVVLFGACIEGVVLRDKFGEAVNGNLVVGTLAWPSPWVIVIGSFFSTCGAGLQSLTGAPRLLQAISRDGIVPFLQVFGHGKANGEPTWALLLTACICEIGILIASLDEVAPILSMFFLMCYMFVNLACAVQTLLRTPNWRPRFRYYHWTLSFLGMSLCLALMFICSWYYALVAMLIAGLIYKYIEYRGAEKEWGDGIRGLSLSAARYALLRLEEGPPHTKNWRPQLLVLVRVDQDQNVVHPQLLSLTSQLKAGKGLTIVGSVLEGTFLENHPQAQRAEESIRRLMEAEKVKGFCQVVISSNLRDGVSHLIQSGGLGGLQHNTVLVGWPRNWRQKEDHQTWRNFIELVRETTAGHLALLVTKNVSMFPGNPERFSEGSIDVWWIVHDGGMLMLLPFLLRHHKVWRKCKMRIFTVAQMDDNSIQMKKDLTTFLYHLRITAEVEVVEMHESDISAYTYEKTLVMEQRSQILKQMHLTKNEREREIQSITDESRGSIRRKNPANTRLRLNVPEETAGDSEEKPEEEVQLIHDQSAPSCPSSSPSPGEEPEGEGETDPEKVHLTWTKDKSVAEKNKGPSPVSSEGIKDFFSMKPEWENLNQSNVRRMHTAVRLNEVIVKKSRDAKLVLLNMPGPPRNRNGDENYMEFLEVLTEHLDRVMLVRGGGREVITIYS
Experiment: KCC2 modulator potency by thallium flux, dose response, cell-based, HEK293 KCC2, FluoZin-2 fluorescence (AID 1736)

[1] = inactive by the depositor's call

| EC50 [µM] | EC50 [1] [µM] | Compound |
| --- | --- | --- |
| 15.1 |  | COc1ccc(-n2cnnc2SCC(=O)Nc2cc(S(=O)(=O)N3CCCCC3)ccc2C)cc1 [2-[[4-(4-methoxyphenyl)-1,2,4-triazol-3-yl]sulfanyl]-N-(2-methyl-5-piperidin-1-ylsulfonyl-phenyl)ethanamide] |
| 7.15 |  | Cc1ccccc1-c1nc(C[S+]([O-])CC(=O)NCc2ccccc2)c(C)o1 (centres undefined) [2-[[5-methyl-2-(2-methylphenyl)-1,3-oxazol-4-yl]methylsulfinyl]-N-(phenylmethyl)ethanamide] |
| 11.8 |  | Cc1ccccc1-c1nc(CS(=O)(=O)CC(=O)NCc2ccccc2)c(C)o1 [2-[[5-methyl-2-(2-methylphenyl)-1,3-oxazol-4-yl]methylsulfonyl]-N-(phenylmethyl)ethanamide] |
|  | 0.134 | O=C(/C=C/c1ccccc1)Nc1scc(-c2ccccc2)c1C(=O)O [2-[[(E)-1-oxo-3-phenylprop-2-enyl]amino]-4-phenyl-3-thiophenecarboxylic acid] |
| 3.36 |  | Cc1ccc(C(=O)CC=Nc2ccccc2C(N)=O)cc1 [2-[[(E)-3-(4-methylphenyl)-3-oxidanylidene-prop-1-enyl]amino]benzamide] |
| 5.23 |  | COc1ccc(-c2cc(CNC(=O)CN(C)Cc3ccccc3)on2)cc1 [2-[benzyl(methyl)amino]-N-[[3-(4-methoxyphenyl)-1,2-oxazol-5-yl]methyl]acetamide] |
| 281 |  | CN(C)S(=O)(=O)c1cccc(NC(=O)c2cc3c(cc2Cl)N2CCCCC=C2NS3(=O)=O)c1 [2-chloranyl-N-[3-(dimethylsulfamoyl)phenyl]-5,5-bis(oxidanylidene)-8,9,10,11-tetrahydro-7H-azepino[2,1-c][1,2,4]benzothiadiazine-3-carboxamide] |
| 2.49 |  | Cc1ccc(-c2csc(NC(=O)CCNC(=O)c3ccccc3Cl)n2)cc1 [2-chloranyl-N-[3-[[4-(4-methylphenyl)-1,3-thiazol-2-yl]amino]-3-oxidanylidene-propyl]benzamide] |
|  | 45.8 | CC(C)c1ccc(C=NNC(=O)c2ccccc2Cl)cc1 [2-chloranyl-N-[(4-propan-2-ylphenyl)methylideneamino]benzamide] |
| 9.6 |  | O=C(NC(=S)Nc1nc(-c2cccc([N+](=O)[O-])c2)cs1)c1ccccc1Cl [2-chloranyl-N-[[4-(3-nitrophenyl)-1,3-thiazol-2-yl]carbamothioyl]benzamide] |
|  | 1.8 | O=C(NC(=S)Nc1ccc(-c2nc3ncccc3o2)cc1)c1ccccc1F [2-fluoranyl-N-[[4-([1,3]oxazolo[4,5-b]pyridin-2-yl)phenyl]carbamothioyl]benzamide] |
| 6.66 |  | COc1ccccc1C(=O)NC1CCN(C(=S)NCCc2ccccc2)CC1 [2-methoxy-N-[1-(2-phenylethylcarbamothioyl)piperidin-4-yl]benzamide] |
| 1.74 |  | Cc1cc([N+](=O)[O-])ccc1NCc1ccccc1 [2-methyl-4-nitro-N-(phenylmethyl)aniline] |
| 29.2 |  | O=C(NN=Cc1ccccn1)c1ccccc1O [2-oxidanyl-N-(pyridin-2-ylmethylideneamino)benzamide] |
| 69.7 |  | O=C(C1CCN(S(=O)(=O)c2cccc3nsnc23)CC1)N1CCc2ccccc2C1 [2-{[1-(2,1,3-benzothiadiazol-4-ylsulfonyl)piperidin-4-yl]carbonyl}-1,2,3,4-tetrahydroisoquinoline] |
| 4.09 |  | Cc1noc(/C=C/c2ccco2)c1S(=O)(=O)N1CCC(C(=O)N2CCc3ccccc3C2)CC1 [2-{[1-({5-[(E)-2-(2-furyl)vinyl]-3-methylisoxazol-4-yl}sulfonyl)piperidin-4-yl]carbonyl}-1,2,3,4-tetrahydroisoquinoline] |
| 6.59 |  | COc1cc(OC)c(C2=NOC(C(=O)N3CCc4ccccc4C3)C2)cc1Cl (centres undefined) [2-{[3-(5-chloro-2,4-dimethoxyphenyl)-4,5-dihydro-5-isoxazolyl]carbonyl}-1,2,3,4-tetrahydroisoquinoline] |
| 1.14 |  | CC12CC3(C)CC(C)(C1)CC(C(=O)NC(=S)N1CCCC1)(C2)C3 [3,5,7-trimethyl-N-pyrrolidin-1-ylcarbothioyl-adamantane-1-carboxamide] |
| 4.02 |  | CCCCCC(=O)Cc1cc(O)cc2c1C(=O)Oc1cc(O)c(C(=O)O)c(CCCCC)c1O2 [3,8-Dihydroxy-11-oxo-1-(2-oxo-heptyl)-6-pentyl-11H-dibenzo[b,e][1,4]dioxepine-7-carboxylic acid] |
| 97.3 |  | Cc1cc(C(=O)COC(=O)CCc2nc3ccccc3s2)c(C)n1C [3-(1,3-benzothiazol-2-yl)propanoic acid [2-oxo-2-(1,2,5-trimethyl-3-pyrrolyl)ethyl] ester] |

| EC50 [µM] | EC50 [1] [µM] | Compound |
| --- | --- | --- |
| 0.13 |  | Cc1ccc(/C=C2\SC(=S)N(c3c(C)n(C)n(-c4ccccc4)c3=O)C2=O)cc1 [3-(1,5-dimethyl-3-oxo-2-phenyl-2,3-dihydro-1H-pyrazol-4-yl)-5-(4-methylbenzylidene)-2-thioxo-1,3-thiazolidin-4-one] |
| 0.271 |  | Cc1onc(-c2ccccc2Cl)c1C(=O)NC(=S)Nc1ccc(C(C)C)cc1 [3-(2-chlorophenyl)-5-methyl-N-(p-cumenylthiocarbamoyl)isoxazole-4-carboxamide] |
| 9.8 |  | O=C(CCSCCc1ccccn1)Nc1ccc(Cc2ccncc2)cc1 [3-(2-pyridin-2-ylethylsulfanyl)-N-[4-(pyridin-4-ylmethyl)phenyl]propanamide] |
|  | 60.1 | S=c1[nH]nc(-c2cccc(Cl)c2)n1N=Cc1ccco1 [3-(3-chlorophenyl)-4-(furan-2-ylmethylideneamino)-1H-1,2,4-triazole-5-thione] |
| 4.9 |  | O=S(=O)(NC1CCCC1)c1cccc(S(=O)(=O)N2CCC(n3nnc4ccccc43)CC2)c1 [3-(4-Benzotriazol-1-yl-piperidine-1-sulfonyl)-N-cyclopentyl-benzenesulfonamide] |
| 6.74 |  | O=S1(=O)N=C(N2CCN(Cc3ccccc3)CC2)c2ccccc21 [3-(4-Benzyl-piperazin-1-yl)-benzo[d]isothiazole 1,1-dioxide] |
| 228 |  | O=C(Cn1c(-c2ccc(Cl)cc2)noc1=O)N1CCN(c2ccccc2F)CC1 [3-(4-Chloro-phenyl)-4-{2-[4-(2-fluoro-phenyl)-piperazin-1-yl]-2-oxo-ethyl}-4H-[1,2,4]oxadiazol-5-one] |
| 0.986 |  | CCN(CC)c1ccc2c(C)c(-c3ccc(N)cc3)c(=O)oc2c1 [3-(4-aminophenyl)-7-(diethylamino)-4-methyl-1-benzopyran-2-one] |
| 4060 |  | CCOc1ccc(C(CC(=O)O)NC(=O)C(Sc2ccccc2)c2ccccc2)cc1 (centres undefined) [3-(4-ethoxyphenyl)-3-[(2-phenyl-2-phenylsulfanyl-ethanoyl)amino]propanoic acid] |
| 0.702 |  | CS/C(=N\Cc1ccc(F)cc1)NS(=O)(=O)c1cccs1 [3-(4-fluorobenzyl)-2-methyl-1-(2-thienylsulfonyl)isothiourea] |
| 20 |  | O=C(Cn1cnc2c(nnn2Cc2ccc(F)cc2)c1=O)N1CCN(c2ccccc2)CC1 [3-(4-fluorobenzyl)-6-[2-keto-2-(4-phenylpiperazino)ethyl]triazolo[4,5-d]pyrimidin-7-one] |
| 3.85 |  | Cc1ccc(OCCC(=O)OCC(=O)N2c3ccccc3CC2C)cc1 (centres undefined) [3-(4-methylphenoxy)propanoic acid [2-(2-methyl-2,3-dihydroindol-1-yl)-2-oxoethyl] ester] |
| 244 |  | CCOc1ccc2nc(Sc3cc(O)n(-c4cccc(OC)c4)c3O)sc2c1 [3-(6-Ethoxy-benzothiazol-2-ylsulfanyl)-1-(3-methoxy-phenyl)-pyrrolidine-2,5-dione] |
| 1.78 |  | COC(=O)c1sccc1NC(=S)OC [3-(methoxycarbothioylamino)thiophene-2-carboxylic acid methyl ester] |
| 15.3 |  | O=C(Nc1ccc(Cc2ccncc2)cc1)c1cccc([N+](=O)[O-])c1 [3-Nitro-N-(4-pyridin-4-ylmethyl-phenyl)-benzamide] |
| 147 |  | O=C(Cn1nnc2c(cnn2-c2ccccc2)c1=O)N1CCN(c2ccccc2F)CC1 [3-[2-[4-(2-fluorophenyl)-1-piperazinyl]-2-oxoethyl]-7-phenyl-4-pyrazolo[3,4-d]triazinone] |
|  | 44.2 | O=C(CCCn1ncn2c(cc3occc32)c1=O)N1CCc2ccccc2C1 [3-[4-(3,4-dihydro-1H-isoquinolin-2-yl)-4-keto-butyl]furo[3,4]pyrrolo[3,5-c][1,2,4]triazin-4-one] |
| 5.39 |  | O=C(O)CCc1cc(I)c(Oc2ccc(O)c(I)c2)c(I)c1 [3-[4-(4-hydroxy-3-iodophenoxy)-3,5-diiodophenyl]propanoic acid] |
| 14.8 |  | Cc1ccc(C(=O)O)cc1-c1ccc(C=C2NC(=O)N(c3ccccc3)C2=O)o1 [3-[5-[(E)-(2,5-dioxo-1-phenylimidazolidin-4-ylidene)methyl]furan-2-yl]-4-methylbenzoic acid] |
